From ChEMBL document CHEMBL5380861, “Design and Synthesis of Orexin 1 Receptor-Selective Agonists” (J Med Chem, 2023) come the findings set out here.

The target of data set [1] is T1, Orexin/Hypocretin receptor type 1 (Homo sapiens, UniProt O43613).
T1 sequence (O43613 whole entry): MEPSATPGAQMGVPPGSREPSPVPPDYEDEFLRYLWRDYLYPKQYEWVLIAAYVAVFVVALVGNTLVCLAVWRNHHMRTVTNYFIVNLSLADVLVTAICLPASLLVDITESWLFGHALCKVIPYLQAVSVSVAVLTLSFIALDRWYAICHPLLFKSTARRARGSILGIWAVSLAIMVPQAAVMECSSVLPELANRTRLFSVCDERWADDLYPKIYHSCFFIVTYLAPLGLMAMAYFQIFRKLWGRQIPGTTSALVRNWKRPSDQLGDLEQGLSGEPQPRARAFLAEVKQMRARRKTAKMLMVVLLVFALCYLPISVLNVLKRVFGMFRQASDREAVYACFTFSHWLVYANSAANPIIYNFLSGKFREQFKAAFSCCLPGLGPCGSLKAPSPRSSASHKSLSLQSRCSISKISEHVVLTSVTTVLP
Kind of data set: Agonist activity at OX1R (unknown origin).

Data set [2] deals with T2, Orexin/Hypocretin receptor type 1 (Mus musculus, UniProt P58307).
T2 sequence (P58307 whole entry): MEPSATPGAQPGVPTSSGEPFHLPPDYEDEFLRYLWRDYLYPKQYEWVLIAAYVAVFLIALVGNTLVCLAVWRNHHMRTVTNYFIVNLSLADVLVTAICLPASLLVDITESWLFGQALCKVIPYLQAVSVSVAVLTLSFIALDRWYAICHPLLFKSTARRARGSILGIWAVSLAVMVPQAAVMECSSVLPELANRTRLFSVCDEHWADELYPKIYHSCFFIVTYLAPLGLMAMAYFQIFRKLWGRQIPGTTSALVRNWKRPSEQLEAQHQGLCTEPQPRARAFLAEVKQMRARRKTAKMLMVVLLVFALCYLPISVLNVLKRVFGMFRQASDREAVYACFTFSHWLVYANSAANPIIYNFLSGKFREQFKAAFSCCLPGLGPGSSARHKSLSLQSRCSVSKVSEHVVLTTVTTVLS
Kind of data set: Agonist activity at mouse OX1R expressed in HEK293 cells by AP-TGFalpha reporter assay. On the technique in general: Reporter assays use an easily measured gene product as a stand-in for the process of interest.

The nature of data set [3]: Drug concentration in mouse plasma at 40 mg/kg, sc. It counts as ADME, organism-based. To be noted: in vivo.
Data set [4] can be described thus: Drug concentration in mouse brain at 40 mg/kg, sc. It counts as ADME, organism-based. To be noted: in vivo.
Data set [5] in a line: Ratio of drug concentration in mouse brain to plasma at 40 mg/kg, sc.
The target of data set [6] is T3, Orexin receptor type 2 (Mus musculus, UniProt P58308).
T3 sequence (P58308 whole entry): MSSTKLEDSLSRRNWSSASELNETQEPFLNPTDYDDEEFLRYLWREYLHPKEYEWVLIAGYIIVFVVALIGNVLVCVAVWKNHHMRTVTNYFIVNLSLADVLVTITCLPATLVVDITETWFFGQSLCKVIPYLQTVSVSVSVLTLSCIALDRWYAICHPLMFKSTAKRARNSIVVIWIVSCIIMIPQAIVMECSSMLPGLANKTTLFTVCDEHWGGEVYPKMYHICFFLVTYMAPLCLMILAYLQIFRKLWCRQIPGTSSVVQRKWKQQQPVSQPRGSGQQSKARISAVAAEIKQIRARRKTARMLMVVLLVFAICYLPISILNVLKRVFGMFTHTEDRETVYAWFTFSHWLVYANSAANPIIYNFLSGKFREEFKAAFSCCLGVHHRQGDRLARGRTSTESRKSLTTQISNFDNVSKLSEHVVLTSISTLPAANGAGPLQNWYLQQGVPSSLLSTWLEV
As to the kind of experiment: Agonist activity at mouse OX2R expressed in HEK293 cells by AP-TGFalpha reporter assay.

Data set [7] has as its target T1, Orexin/Hypocretin receptor type 1.
Description: Agonist activity at human OX1R expressed in CHO-K1 cells assessed as increase in intracellular calcium
Data set [8] addresses T4, Orexin receptor type 2 (Homo sapiens, UniProt O43614).
T4 sequence (O43614 whole entry): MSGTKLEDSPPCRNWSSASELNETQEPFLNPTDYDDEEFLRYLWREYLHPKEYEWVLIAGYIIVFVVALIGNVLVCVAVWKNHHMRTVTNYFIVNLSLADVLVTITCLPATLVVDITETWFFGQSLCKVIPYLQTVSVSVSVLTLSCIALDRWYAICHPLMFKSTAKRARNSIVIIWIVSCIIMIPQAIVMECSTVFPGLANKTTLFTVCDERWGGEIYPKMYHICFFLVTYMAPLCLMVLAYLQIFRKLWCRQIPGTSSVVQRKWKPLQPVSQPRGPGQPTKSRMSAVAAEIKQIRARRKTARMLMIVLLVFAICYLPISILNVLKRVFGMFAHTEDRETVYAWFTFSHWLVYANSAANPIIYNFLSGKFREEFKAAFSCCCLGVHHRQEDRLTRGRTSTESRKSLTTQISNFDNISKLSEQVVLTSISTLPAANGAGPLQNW
Description: Agonist activity at human OX2R expressed in CHO-K1 cells assessed as increase in intracellular calcium

Each structure is given as a SMILES string.

What is called EC50 is the midpoint of the concentration-response curve. A high value points to a less potent agent. With `COc1ccc(-c2cccc(C(=O)N(C)C)c2)cc1S(=O)(=O)Nc1cccc(CCNC(=O)c2ccccc2-n2nccn2)c1`, the EC50 in data set [1] is 36000 nM.

What is called Kp is the ratio of the level in a tissue or fluid to that in plasma or blood. Take `COc1cccc(CC(=O)N(C)[C@@H]2CCCc3ccc(NS(=O)(=O)c4cc(-c5cccc(C(=O)N(C)C)c5)ccc4OC)cc32)c1`: the EC50 in data set [2] was 174 nM; in data set [6], 69 nM. In addition, in data set [3], the concentration worked out at 25 µM. Moreover, in data set [4], the Ct came out at 61.1 pmol/g. In addition, the Kp in data set [5] stood at 0.002.

The compound `COc1cccc(CC(=O)N(C)[C@H]2CCCc3ccc(NS(=O)(=O)c4cc(/C=C/C(=O)Nc5ccncc5)ccc4OC)cc32)c1` yielded an EC50 in data set [7] of 3590 nM.

As to `CCCCNC(=O)/C=C/c1ccc(OC)c(S(=O)(=O)Nc2ccc3c(c2)C(N(C)C(=O)Cc2cccc(OC)c2)CCC3)c1` (centres undefined), the EC50 was 573 nM in data set [7] and > 10000 nM in data set [8].

`COc1cccc(CC(=O)N(C)C2CCCc3ccc(NS(=O)(=O)c4cc(/C=C/C(N)=O)ccc4OC)cc32)c1` (centres undefined) came in with an EC50 in data set [7] of 581 nM.

On to `CNC(=O)/C=C/c1ccc(OC)c(S(=O)(=O)Nc2ccc3c(c2)C(N(C)C(=O)Cc2cccc(OC)c2)CCC3)c1` (centres undefined), for which the EC50 was 501 nM in data set [7] and > 10000 nM in data set [8].

Take `COc1cccc(CC(=O)N(C)C2CCCc3ccc(NS(=O)(=O)c4cc(/C=C/C(=O)NCCN(C)C)ccc4OC)cc32)c1` (centres undefined): the EC50 in data set [7] is 271 nM; in data set [8] it was 2410 nM.

Consider `COc1cccc(CC(=O)N(C)C2CCCc3ccc(NS(=O)(=O)c4cc(/C=C/C(=O)Nc5ccccn5)ccc4OC)cc32)c1` (centres undefined), for which the EC50 in data set [7] worked out at 201 nM; in data set [8], 955 nM.

The compound `COc1cccc(CC(=O)N(C)C2CCCc3ccc(NS(=O)(=O)c4cc(CCC(=O)N(C)C)ccc4OC)cc32)c1` (centres undefined) came in with an EC50 in data set [7] of 1760 nM.

Consider `COc1cccc(CC(=O)N(C)C2CCCc3ccc(NS(=O)(=O)c4cc(/C=C/C(=O)N(C)c5ccncc5)ccc4OC)cc32)c1` (centres undefined), for which the results for the EC50 in data set [7] and in data set [8] were 187 nM and 275 nM, respectively.

Turning to `COc1cccc(CC(=O)N(C)C2CCCc3ccc(NS(=O)(=O)c4cc(-c5ccccc5)ccc4OC)cc32)c1` (centres undefined), the EC50 amounted to 5920 nM in data set [7] and 1290 nM in data set [8].

With `COc1cccc(CC(=O)N(C)C2CCCc3ccc(NS(=O)(=O)c4cc(/C=C/C(=O)Nc5cccnc5)ccc4OC)cc32)c1` (centres undefined), the EC50 in data set [7] was found to be 43.4 nM; in data set [8] it was 295 nM.

In the case of `COc1cccc(CC(=O)N(C)[C@@H]2CCCc3ccc(NS(=O)(=O)c4cc(/C=C/C(=O)Nc5ccncc5)ccc4OC)cc32)c1`, the values for the EC50 in data set [2], in data set [7] and in data set [6] were 154 nM, 747 nM and 457 nM, respectively. In data set [3], the concentration came out at 32 µM. This compound also registered a Ct in data set [4] of 137 pmol/g.

`COc1cccc(CC(=O)N(C)C2CCCc3ccc(NS(=O)(=O)c4cc(/C=C/C(=O)Nc5ccccc5)ccc4OC)cc32)c1` (centres undefined): the values for the EC50 in data set [7] and in data set [8] were 472 nM and 3290 nM, respectively.

Regarding `COc1cccc(CC(=O)N(C)C2CCCc3ccc(NS(=O)(=O)c4cc(CCCC(=O)N(C)C)ccc4OC)cc32)c1` (centres undefined), the EC50 in data set [8] was 1020 nM.

`COc1cccc(CC(=O)N(C)C2CCCc3ccc(NS(=O)(=O)c4cc(CC(=O)N(C)C)ccc4OC)cc32)c1` (centres undefined) displayed an EC50 in data set [7] of 1040 nM.

Regarding `COc1cccc(CC(=O)N(C)C2CCCc3ccc(NS(=O)(=O)c4cc(/C=C/C(=O)N(C)C)ccc4OC)cc32)c1` (centres undefined), the EC50 is 1280 nM in data set [7] and > 10000 nM in data set [8].

Turning to `COc1cccc(CC(=O)N(C)C2CCCc3ccc(NS(=O)(=O)c4cc(C(=O)N(C)C)ccc4OC)cc32)c1` (centres undefined), the EC50 in data set [7] is 607 nM; in data set [8], 146 nM.

As to `COCCNC(=O)/C=C/c1ccc(OC)c(S(=O)(=O)Nc2ccc3c(c2)C(N(C)C(=O)Cc2cccc(OC)c2)CCC3)c1` (centres undefined), the EC50 is 476 nM in data set [7] and > 10000 nM in data set [8].

`COc1cccc(CC(=O)N(C)C2CCCc3ccc(NS(=O)(=O)c4cc(/C=C/C(=O)Nc5ccncc5)ccc4OC)cc32)c1` (racemic): the EC50 in data set [7] is 15.3 nM.
